EC50 and IC50 data for 15 compounds are collected here from US8598157B2, “5-alkynyl-pyridines” (Boehringer Ingelheim International GmbH, priority 2011, dated 2013).

One assay concerns U87 cells. The assay can be described thus: U87 cell assay (antiproliferative/cytotoxicity). Format: cell-based. The following applies: U-87MG human glioblastoma cells. In short, it runs like this: (§1)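 Cells plated overnight, then exposed to compounds from 10 μM in 1:3 steps (10 dilutions, duplicates) for 5–6 days at 37 °C. alamarBlue added for 8 h; fluorescence at ex 530–560/em 590 nm, medium blank subtracted, EC50 versus untreated cells.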

For the next assay, the system named is H460 cells. The assay can be described thus: alamarBlue H460 cell assay (antiproliferative/cytotoxicity). The following applies: NCI-H460; H460 human lung carcinoma cells. The class given is cell-based. The gist of the method: as §1
In general terms: The colour change of resazurin is a common sign of viable cells or microbes.

The subject of the next assay is BT474 cells. In words: alamarBlue BT474 cell assay (antiproliferative/cytotoxicity). The class given is cell-based. The following applies: BT-474 human breast cancer cell line. In short, it runs like this:
as §1

The next assay relates to MB453 cells. The assay can be described thus: alamarBlue MB453 cell assay (antiproliferative/cytotoxicity). The class given is cell-based. As to conditions: Homo sapiens; MDA MB 453 breast cancer cell line. In short, it runs like this:
as §1

The target in another assay is PI3Kalpha (Homo sapiens (Human), UniProt P42336). The assay can be described thus: Inhibition of PI3Kalpha-induced PIP-2 phosphorylation (filter-binding assay). The class given is biochemical. The following applies: 33P-ATP, p85alpha/His-p110alpha, read-out: IC50 PI3Kα. In short, it runs like this: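 Radiometric filter-binding assay: PI3Kα (25 ng/well) preincubated 20 min at room temperature with compound and PIP2-containing lipid vesicles plus phosphotyrosine PDGFRβ peptide. Reaction started with cold ATP (1 μM final) and [33P]-ATP and run 120 min at room temperature; filter-captured radioactivity counted, IC50 from duplicate dilution series.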
PI3Kalpha, sequence (P42336 whole entry): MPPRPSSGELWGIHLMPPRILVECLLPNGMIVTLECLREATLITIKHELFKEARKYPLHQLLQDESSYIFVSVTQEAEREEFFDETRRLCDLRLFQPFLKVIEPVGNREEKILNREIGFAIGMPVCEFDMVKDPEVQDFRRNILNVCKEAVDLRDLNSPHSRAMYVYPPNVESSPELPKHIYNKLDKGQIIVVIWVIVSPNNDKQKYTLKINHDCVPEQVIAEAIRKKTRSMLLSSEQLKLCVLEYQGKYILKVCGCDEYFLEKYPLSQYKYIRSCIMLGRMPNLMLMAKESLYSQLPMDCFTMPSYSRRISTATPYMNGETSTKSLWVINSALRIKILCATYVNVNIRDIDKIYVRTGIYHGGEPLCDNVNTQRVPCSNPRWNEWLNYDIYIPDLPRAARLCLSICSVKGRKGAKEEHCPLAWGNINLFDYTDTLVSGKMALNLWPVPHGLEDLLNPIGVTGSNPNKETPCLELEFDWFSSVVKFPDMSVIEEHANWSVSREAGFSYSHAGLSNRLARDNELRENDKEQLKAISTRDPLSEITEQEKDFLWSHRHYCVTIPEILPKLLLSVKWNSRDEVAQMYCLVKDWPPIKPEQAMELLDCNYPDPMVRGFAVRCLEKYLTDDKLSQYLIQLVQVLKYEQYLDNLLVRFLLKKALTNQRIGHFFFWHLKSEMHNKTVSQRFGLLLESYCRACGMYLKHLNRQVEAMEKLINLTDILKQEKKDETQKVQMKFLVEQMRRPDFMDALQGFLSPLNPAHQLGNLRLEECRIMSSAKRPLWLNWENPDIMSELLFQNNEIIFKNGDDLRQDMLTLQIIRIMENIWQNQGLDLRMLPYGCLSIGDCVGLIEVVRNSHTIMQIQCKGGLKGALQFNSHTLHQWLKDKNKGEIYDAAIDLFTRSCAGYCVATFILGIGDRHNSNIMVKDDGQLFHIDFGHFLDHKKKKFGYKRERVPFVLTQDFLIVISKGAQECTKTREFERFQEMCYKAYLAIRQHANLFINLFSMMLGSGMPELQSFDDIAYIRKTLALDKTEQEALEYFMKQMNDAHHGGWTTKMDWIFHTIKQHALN

For the next assay, the system named is MCF7 cells. The assay can be described thus: alamarBlue MCF7 cell assay (antiproliferative/cytotoxicity). Format: cell-based. The following applies: MCF7 human breast cancer cell line. In short, it runs like this:
as §1

Each structure is given as a SMILES string.

For `Cc1ncc(C#Cc2c(C)ncnc2N2CCOCC2)cc1NS(=O)(=O)c1cnoc1C` [Example I-47, 5-Methyl-isoxazole-4-sulfonic acid [2-methyl-5-(4-methyl-6-morpholin-4-yl-pyrimidin-5-ylethynyl)-pyridin-3-yl]-amide], the EC50 (usually the concentration giving half of the maximal effect) in the assay with U87 cells came out at 25000 nM; in the assay on H460 cells, 25000 nM; in the assay with BT474 cells, 10000 nM; in the assay on MB453 cells it was 25000 nM; in the assay on MCF7 cells it was 10000 nM. Moreover, the 50% inhibitory concentration (IC50) (usually the midpoint of a concentration-inhibition curve) on PI3Kalpha was 21 nM.
With `Cc1ncc(C#Cc2c(C)ncnc2N(C)C(C)C)cc1NS(=O)(=O)c1ccc(F)cc1F` [Example I-15, 2,4-Difluoro-N-{5-[4-(isopropyl-methyl-amino)-6-methyl-pyrimidin-5-ylethynyl]-2-methyl-pyridin-3-yl}-benzenesulfonamide], the half-maximal effective concentration (EC50) in the assay with U87 cells worked out at 1670 nM; with H460 cells, 376 nM; in the assay with BT474 cells it was 318 nM; in the assay with MB453 cells it was 898 nM; in the assay with MCF7 cells, 163 nM. On PI3Kalpha, the half-maximal inhibitory concentration (IC50) was 0.74 nM.
With `Cc1ncnc(N2CCOCC2)c1C#Cc1cncc(NS(=O)(=O)c2ccc(F)cc2F)c1` [Example I-20, 2,4-Difluoro-N-[5-(4-methyl-6-morpholin-4-yl-pyrimidin-5-ylethynyl)-pyridin-3-yl]-benzenesulfonamide], the half-maximal effective concentration (EC50) with U87 cells was 521 nM; in the assay on H460 cells, 391 nM; in the assay with BT474 cells, 153 nM; in the assay on MB453 cells, 281 nM; in the assay on MCF7 cells, 22 nM. Also, the IC50 on PI3Kalpha came to 0.46 nM.
In the case of `Cc1ncc(C#Cc2c(C)ncnc2N2CCOCC2)cc1NS(=O)(=O)c1ccccc1` [Example I-40, N-[2-Methyl-5-(4-methyl-6-morpholin-4-yl-pyrimidin-5-ylethynyl)-pyridin-3-yl]-benzenesulfonamide], the 50% effective concentration (EC50) in the assay on U87 cells was 386 nM; in the assay with H460 cells, 120 nM; in the assay with BT474 cells, 147 nM; in the assay on MB453 cells it was 145 nM; in the assay with MCF7 cells, 49 nM. Also, the IC50 at PI3Kalpha came to 0.28 nM.
For the compound `Cc1ncc(C#Cc2c(C)ncnc2N2CCOCC2)cc1NS(=O)(=O)c1ccnn1C` [Example I-56, 2-Methyl-2H-pyrazole-3-sulfonic acid [2-methyl-5-(4-methyl-6-morpholin-4-yl-pyrimidin-5-ylethynyl)-pyridin-3-yl]-amide], the 50% effective concentration (EC50) in the assay on U87 cells was 779 nM; in the assay on H460 cells, 756 nM; in the assay with BT474 cells, 487 nM; with MB453 cells, 239 nM; in the assay on MCF7 cells, 125 nM. Moreover, on PI3Kalpha, the IC50 came to 0.44 nM.
`CCCS(=O)(=O)Nc1cc(C#Cc2c(C)ncnc2N2CCOCC2)cnc1C` [Example I-3, Propane-1-sulfonic acid [2-methyl-5-(4-methyl-6-morpholin-4-yl-pyrimidin-5-ylethynyl)-pyridin-3-yl]-amide]: the half-maximal effective concentration (EC50) with U87 cells worked out at 529 nM; in the assay with H460 cells it was 315 nM; with BT474 cells, 1040 nM; with MB453 cells it was 777 nM; in the assay on MCF7 cells, 451 nM. Further, the half-inhibitory concentration (IC50) on PI3Kalpha worked out at 5 nM.
For `Cc1ncc(C#Cc2c(C)ncnc2N2CCOCC2)cc1NS(=O)(=O)N1CCCC1` [Example I-64, Pyrrolidine-1-sulfonic acid [2-methyl-5-(4-methyl-6-morpholin-4-yl-pyrimidin-5-ylethynyl)-pyridin-3-yl]-amide], the EC50 with U87 cells amounted to 773 nM; in the assay with H460 cells, 71 nM; in the assay with BT474 cells, 5950 nM; with MB453 cells, 584 nM; in the assay on MCF7 cells it was 59 nM. On PI3Kalpha, the IC50 worked out at 2 nM.
`Cc1ncc(C#Cc2c(C)ncnc2N2CCOCC2)cc1NS(=O)(=O)c1ccccc1C(F)(F)F` [Example I-13, N-[2-Methyl-5-(4-methyl-6-morpholin-4-yl-pyrimidin-5-ylethynyl)-pyridin-3-yl]-2-trifluoromethyl-benzenesulfonamide]: the EC50 was determined as 108 nM in the assay on U87 cells; 23 nM in the assay with H460 cells; 69 nM with BT474 cells; 63 nM in the assay with MB453 cells; 18 nM in the assay with MCF7 cells. Also, at PI3Kalpha, the half-maximal inhibitory concentration (IC50) turned out to be 0.63 nM.
As for `Cc1ncc(C#Cc2c(C)ncnc2N2CCOCC2)cc1NS(=O)(=O)c1ccccc1F` [Example I-2, 2-Fluoro-N-[2-methyl-5-(4-methyl-6-morpholin-4-yl-pyrimidin-5-ylethynyl)-pyridin-3-yl]-benzenesulfonamide], the EC50 in the assay on U87 cells was found to be 342 nM; with H460 cells, 234 nM; in the assay with BT474 cells, 148 nM; with MB453 cells, 168 nM; with MCF7 cells it was 43 nM. Besides, the IC50 at PI3Kalpha turned out to be 0.65 nM.
Turning to `Cc1ncc(C#Cc2c(C)ncnc2N2CCOCC2)cc1NS(=O)(=O)c1ccc(F)cc1` [Example I-30, 4-Fluoro-N-[2-methyl-5-(4-methyl-6-morpholin-4-yl-pyrimidin-5-ylethynyl)-pyridin-3-yl]-benzenesulfonamide], the 50% effective concentration (EC50) in the assay with U87 cells was 385 nM; in the assay on H460 cells it was 230 nM; in the assay on BT474 cells it was 122 nM; in the assay with MB453 cells, 148 nM; with MCF7 cells it was 21 nM. Moreover, the concentration for half-maximal inhibition (IC50) at PI3Kalpha turned out to be 0.43 nM.
As for `CCc1ncnc(N(C)C)c1C#Cc1cnc(C)c(NS(C)(=O)=O)c1` [Example I-32, N-[5-(4-Dimethylamino-6-ethyl-pyrimidin-5-ylethynyl)-2-methyl-pyridin-3-yl]-methanesulfonamide], the concentration giving a half-maximal response (EC50) came out at 1290 nM in the assay with U87 cells; 1210 nM in the assay on H460 cells; 1880 nM in the assay with BT474 cells; 656 nM with MB453 cells; 617 nM in the assay on MCF7 cells. The IC50 on PI3Kalpha was determined as 8 nM.
In the case of `CCc1ncnc(N2CCOCC2)c1C#Cc1cnc(OC)c(NS(=O)(=O)c2ccccc2)c1` [Example I-26, N-[5-(4-Ethyl-6-morpholin-4-yl-pyrimidin-5-ylethynyl)-2-methoxy-pyridin-3-yl]-benzenesulfonamide], the EC50 in the assay with U87 cells was 97 nM; in the assay with H460 cells, 21 nM; in the assay with BT474 cells it was 28 nM; in the assay on MB453 cells, 61 nM; with MCF7 cells it was 9 nM. The IC50 at PI3Kalpha is 0.59 nM.
As to `Cc1ncc(C#Cc2c(C)ncnc2N2CCOCC2)cc1NS(=O)(=O)C1CCCCC1` [Example I-39, Cyclohexanesulfonic acid [2-methyl-5-(4-methyl-6-morpholin-4-yl-pyrimidin-5-ylethynyl)-pyridin-3-yl]-amide], the EC50 was found to be 2910 nM in the assay on U87 cells; 1850 nM in the assay on H460 cells; 2770 nM in the assay with BT474 cells; 1790 nM with MB453 cells; 1290 nM in the assay with MCF7 cells. Moreover, the concentration for half-maximal inhibition (IC50) at PI3Kalpha was found to be 5 nM.
Regarding `Cc1ncc(C#Cc2c(C)ncnc2N2CCOCC2)cc1NS(=O)(=O)c1ccco1` [Example I-49, Furan-2-sulfonic acid [2-methyl-5-(4-methyl-6-morpholin-4-yl-pyrimidin-5-ylethynyl)-pyridin-3-yl]-amide], the half-maximal effective concentration (EC50) in the assay on U87 cells turned out to be 512 nM; in the assay on H460 cells, 356 nM; with BT474 cells it was 444 nM; in the assay on MB453 cells, 393 nM; in the assay on MCF7 cells, 49 nM. In addition, the concentration for half-maximal inhibition (IC50) at PI3Kalpha stood at 2 nM.
For `Cc1ncc(C#Cc2c(C)ncnc2N2CCOCC2)cc1NS(=O)(=O)C(C)C` [Example I-38, Propane-2-sulfonic acid [2-methyl-5-(4-methyl-6-morpholin-4-yl-pyrimidin-5-ylethynyl)-pyridin-3-yl]-amide], the concentration for a half-maximal effect (EC50) came out at 836 nM with U87 cells; 829 nM in the assay with H460 cells; 1220 nM with BT474 cells; 642 nM in the assay on MB453 cells; 304 nM with MCF7 cells. In addition, the IC50 on PI3Kalpha came out at 2 nM.
